Literature values as cited in patent US9320295B2, “Compositions containing non-polar compounds” (Virun, Inc., priority 2010, dated 2016).

| Substance | HLB value |
| --- | --- |
| sucrose dipalmitate | 7.4 |
| sucrose distearate | 3 |
| sucrose monopalmitate | > 10 |
